These molecules were tested against T1, 15-PGDH/HPGD (Homo sapiens, UniProt P15428) (assay: hPGDH inhibitor screening biochemical assay). Conditions: 10 nM enzyme, 15 μM PGE2, 0.25 mM NAD, fluorescence ex/em 340/485 nm.
T1 construct: purchased R&D System 5660-DH
T1 sequence (P15428 1-266): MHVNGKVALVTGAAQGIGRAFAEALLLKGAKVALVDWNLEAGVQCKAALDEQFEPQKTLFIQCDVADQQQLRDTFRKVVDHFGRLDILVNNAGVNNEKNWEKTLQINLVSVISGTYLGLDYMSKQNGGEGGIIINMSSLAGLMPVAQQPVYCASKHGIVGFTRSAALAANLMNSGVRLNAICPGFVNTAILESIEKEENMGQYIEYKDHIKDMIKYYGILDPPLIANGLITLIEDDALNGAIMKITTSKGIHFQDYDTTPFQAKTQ
Experimental: A hydroxyprostaglandin dehydrogenase inhibition screening biochemical assay can be performed to assess the synthesized inhibitors provided herein. Provided herein is an exemplary biochemical assay for hPGDH inhibitor screening.
The in vitro biochemical assay can be performed in white, 384 plates in total 20 μl reaction volume consisting of 10 nM of 15-PGDH/HPGD (R&D System #5660-DH), 15 μM Prostaglandin E2 (Sigma, C8 t #P5640-10 MG) and 0.25 mM β-Nicotinamide adenine dinucleotide sodium salt (Sigma, C8 t #N0632-5G) made in reaction buffer (50 mM Tris-HCl, pH 7.5, 0.01% Tween 20) at 10-point dose response curve for test/tool compounds. Briefly, 5 μl (4×) of compounds solution and 5 μl (final concentration, 10 nM) of enzyme solution is added to white 384 well plates and incubated for 10 mins at 37° C. 5 μl (4×) of […] and 5 μl (4×) of β-Nicotinamide adenine dinucleotide sodium salt is added to the wells and incubated for 10 mins at room temperature. Fluorescence is recorded at ex/em=340 nm/485 nm. The percentage (%) inhibition of enzyme activity was determined relative to positive control (1% DMSO) and IC50 was calculated using GraphPad prism software (four parameter-variable slope equation).

Row | SMILES | IC50 [nM]
1 | Cc1ccc(-c2nnc[nH]2)cc1-n1ccc2cc(C(=O)N3CCC(F)(F)CC3)cnc21 [Compound B-271] | < 100
2 | O=C(c1cnc2c(ccn2-c2cccc(-c3ncc[nH]3)c2)c1)N1CCC[C@@H](O)C1 [Compound B-269] | < 100
3 | COC(=O)Nc1cncc(-n2ccc3cc(C(=O)N4CCC[C@H](C(F)(F)F)C4)cnc32)c1 [Compound B-65] | < 100
4 | C[C@H]1CCCN(C(=O)c2cnc3c(ccn3-c3ccc(C(=O)O)cc3)c2)C1 [Compound B-4] | < 100
5 | O=C(c1cnc2c(ccn2-c2ccc3nc(N4CCOCC4)nn3c2)c1)N1CCCC(F)(F)C1 [Compound B-60] | < 100
6 | O=C(c1cnc2c(ccn2-c2ccc(-c3cnc[nH]3)cc2)c1)N1CCC(F)(F)CC1 [Compound B-226] | < 100
7 | O=C(c1cnc2c(ccn2-c2cnn(C3CCOCC3)c2)c1)N1CCC(F)(F)CC1 [Compound B-94] | < 100
8 | N#Cc1ccc(-n2ccc3cc(C(=O)N4CC[C@H](F)C4)cnc32)cc1 [Compound B-127] | < 100
9 | O=C(c1cnc2c(ccn2-c2ccc(-c3ncn[nH]3)nc2)c1)N1CCC[C@H](O)C1 [Compound B-39] | < 100
10 | O=C(c1cnc2c(ccn2-c2ccc(-c3nnc[nH]3)c(F)c2)c1)N1CCSCC1 [Compound B-254] | < 100
11 | O=C(c1cnc2c(ccn2-c2ccc(-c3nnc[nH]3)cc2)c1)N1CCC(F)(F)CC1 [Compound B-26, (1-(4-(1H-1,2,4-triazol-5-yl)phenyl)-1H-pyrrolo[2,3-b]pyridin-5-yl)(4,4-difluoropiperidin-1-yl)methanone] | < 100
12 | N=C(NN)c1ccc(-n2ccc3cc(C(=O)N4CCC(F)(F)CC4)cnc32)cn1 [Compound B-48, 5-(5-(4,4-difluoropiperidine-1-carbonyl)-1H-pyrrolo[2,3-b]pyridin-1-yl) picolinimidohydrazide] | < 100
13 | O=C(c1cnc2c(ccn2-c2ccc(-c3cn[nH]c3)cc2)c1)N1CCC(F)(F)CC1 [Compound B-233] | < 100
14 | CC1(C)CCN(C(=O)c2cnc3c(ccn3-c3ccc(-c4ncn[nH]4)nc3)c2)C1 [Compound B-42] | < 100
15 | N#Cc1cc(-n2ccc3cc(C(=O)N4CCC(F)(F)CC4)cnc32)ccc1-c1nnc[nH]1 [Compound B-273] | < 100
16 | O=C(O)c1ccc(-n2ccc3cc(C(=O)N4CC[C@@H](F)C4)cnc32)cc1 [Compound B-6] | < 100

Row | SMILES | IC50 [nM]
17 | Nc1nnc(-c2ccc(-n3ccc4cc(C(=O)N5CCCC(F)(F)C5)cnc43)cc2)[nH]1 [Compound B-54] | < 100
18 | Cc1nc(-c2cncc(-n3ccc4cc(C(=O)N5CCC(F)(F)CC5)cnc43)c2)c[nH]1 [Compound B-15] | < 100
19 | O=C(Nc1cncc(-n2ccc3cc(C(=O)N4CCC(F)(F)CC4)cnc32)c1)C1CC1 [Compound B-93] | < 100
20 | O=C(c1cnc2c(ccn2-c2ccc(-c3nnc[nH]3)cc2)c1)N1CCCC(F)(F)C1 [Compound B-61] | < 100
21 | CO[C@H]1CCCN(C(=O)c2cnc3c(ccn3-c3ccc(-c4nnc[nH]4)c(F)c3)c2)C1 [Compound B-247] | < 100
22 | C[C@@H]1CCCN(C(=O)c2cnc3c(ccn3-c3ccc(C#N)cc3)c2)C1 [Compound B-9, (R)-4-(5-(3-methylpiperidine-1-carbonyl)-1H-pyrrolo12,3-b1 pyridin-1-yl)benzonitrile] | < 100
23 | CCn1cc(-n2ccc3cc(C(=O)N4CCC(F)(F)CC4)cnc32)cn1 [Compound B-95] | < 100
24 | Cc1nnc(-c2ccc(-n3ccc4cc(C(=O)N5CCC(F)(F)CC5)cnc43)cn2)[nH]1 [Compound B-21, (4,4-difluoropiperidin-1-yl)(1-(6-(5-methyl-4H-1,2,4-triazol-3-yl)pyridin-3-yl)-1H-pyrrolo[2,3-b]pyridin-5-yl)methanone] | < 100
25 | O=C(c1cnc2c(ccn2-c2ccc(N3CCNC3=O)nc2)c1)N1CCC(F)(F)CC1 [Compound B-2] | < 100
26 | CCOC(=O)Nc1cncc(-n2ccc3cc(C(=O)N4CCCC(F)(F)C4)cnc32)c1 [Compound B-55] | < 100
27 | C[C@H]1CCCN(C(=O)c2cnc3c(ccn3-c3ccc(-c4nnc[nH]4)nc3)c2)C1 [Compound B-28] | < 100
28 | CCOC(=O)Nc1cncc(-n2ccc3cc([S+]([O-])C4CC4)cnc32)c1 (stereo not shown) [Compound B-315] | < 100
29 | O=C(Nc1cncc(-n2ccc3cc(C(=O)N4CCC(F)(F)CC4)cnc32)c1)C1CCC(F)(F)CC1 [Compound B-237] | < 100
30 | NC(=O)c1ccc(-n2ccc3cc(C(=O)N4CCC(F)(F)CC4)cnc32)cn1 [Compound B-104] | < 100
31 | CN(C)c1nnc(-c2ccc(-n3ccc4cc(C(=O)N5CCC(F)(F)CC5)cnc43)cc2)[nH]1 [Compound B-77] | < 100
32 | O=C(c1cnc2c(ccn2-c2ccc(-c3nnc[nH]3)cc2)c1)N1CCC[C@H](C(F)(F)F)C1 [Compound B-229] | < 100

Now from value to molecule:

Row | IC50 [nM] | SMILES
33 | < 100 | C[C@H]1CCCN(C(=O)c2cnc3c(ccn3-c3ccc(-c4nc[nH]n4)cn3)c2)C1 [Compound B-35, (S)-(1-(5-(4H-1,2,4-triazol-3-yl)pyridin-2-yl)-1H-pyrrolo[2,3-b]pyridin-5-yl)(3-methylpiperidin-1-yl)methanone]
34 | < 100 | COc1cc(-n2ccc3cc(C(=O)N4CCC(F)(F)CC4)cnc32)ccc1-c1nnc[nH]1 [Compound B-266]
35 | < 100 | Cc1[nH]nnc1-c1ccc(-n2ccc3cc(C(=O)N4CCC(F)(F)CC4)cnc32)cn1 [Compound B-19, (4,4-difluoropiperidin-1-yl)(1-(6-(5-methyl-1H-1,2,3-triazol-4-yl)pyridin-3-yl)-1H-pyrrolo[2,3-b]pyridin-5-yl)methanone]
36 | < 100 | Nc1nnc(-c2cccc(-n3ccc4cc(C(=O)N5CCC(F)(F)CC5)cnc43)c2)[nH]1 [Compound B-71]
37 | < 100 | CO[C@H]1CCCN(C(=O)c2cnc3c(ccn3-c3cc(F)cc(-c4nnc[nH]4)c3)c2)C1 [Compound B-242]
38 | < 100 | CO[C@@H]1CCCN(C(=O)c2cnc3c(ccn3-c3ccc(-c4nnc[nH]4)c(F)c3)c2)C1 [Compound B-246]
39 | < 100 | O=C(O)c1ccc(-n2ccc3cc(C(=O)N4CC[C@H](F)C4)cnc32)cc1 [Compound B-8]
40 | < 100 | COc1cc(-c2nnc[nH]2)cc(-n2ccc3cc(C(=O)N4CCC(F)(F)CC4)cnc32)c1 [Compound B-263]
41 | < 100 | C[C@H]1CCCN(C(=O)c2cnc3c(ccn3-c3ccc(-c4nc[nH]n4)cc3)c2)C1 [Compound B-33, (S)-(1-(4-(1H-1,2,4-triazol-3-yl)phenyl)-1H-pyrrolo[2,3-b]pyridin-5-yl)(3-methylpiperidin-1-yl)methanone]
42 | < 100 | CCOC(=O)Nc1cncc(-n2ccc3cc(C(=O)N4CCCC(C(F)(F)F)C4)cnc32)c1 (stereo not shown) [Compound B-238]
43 | 100 to 1000 | O=C(c1cnc2c(ccn2-c2ccc(-c3ncn[nH]3)nc2)c1)N1CC[C@H](O)C1 [Compound B-43]
44 | < 100 | C[C@@]1(O)CCCN(C(=O)c2cnc3c(ccn3-c3ccc(-c4nnc[nH]4)cc3)c2)C1 [Compound B-243]
45 | < 100 | Cc1cnc(-c2cncc(-n3ccc4cc(C(=O)N5CCC(F)(F)CC5)cnc43)c2)[nH]1 [Compound B-14]
46 | < 100 | O=C(c1cnc2c(ccn2-c2ccc(-c3nnc[nH]3)cc2F)c1)N1CCC(F)(F)CC1 [Compound B-267]
47 | < 100 | COc1ccc(Cn2cc(-c3ccc(-n4ccc5cc(C(=O)N6CCC(F)(F)CC6)cnc54)cn3)nc2C)cc1 [Compound B-24, (4,4-difluoropiperidin-1-yl) (1-(6-(1-(4-methozybenzyl)-2-methyl-1H-imidazol-4-yl)pyridin-3-yl)-1H-pyrrolo[2,3-b]pyridin-5-yl)methanone]
48 | < 100 | CCOC(=O)Nc1cncc(-n2ccc3cc(C(=O)N4CCSCC4)cnc32)c1 [Compound B-230]
49 | < 100 | Cc1nn[nH]c1-c1cncc(-n2ccc3cc(C(=O)N4CCC(F)(F)CC4)cnc32)c1 [Compound B-18, (4,4-difluoropiperidin-1-yl) (1-(5-(4-methyl-1H-1,2,3-triazol-5-yl)pyridin-3-yl)-1H-pyrrolo[2,3-b]pyridin-5-yl)methanone]
50 | < 100 | O=C(c1cnc2c(ccn2-c2cc(Cl)cc(-c3nnc[nH]3)c2)c1)N1CC[S+]([O-])CC1 [Compound B-257]
51 | < 100 | CC1(O)CCCN(C(=O)c2cnc3c(ccn3-c3ccc(-c4nnc[nH]4)c(Cl)c3)c2)C1 (stereo not shown) [Compound B-258]
52 | < 100 | N#Cc1ccc(-n2ccc3cc(C(=O)N4CC[C@@H](F)C4)cnc32)cc1 [Compound B-126]
53 | < 100 | C[C@H]1CCCN(C(=O)c2cnc3c(ccn3-c3ccc(N4CCNC4=O)nc3)c2)C1 [Compound B-30]
54 | < 100 | O=C(c1cnc2c(ccn2-c2ccc(-c3nnc[nH]3)c(F)c2)c1)N1CC[S+]([O-])CC1 [Compound B-268]
55 | < 100 | C[C@H]1CN(C(=O)c2cnc3c(ccn3-c3ccc(N4CCOC4=O)nc3)c2)CCC1(F)F [Compound B-76]

— US20240294519A1, “PYRROLO[2,3-b]PYRIDINE PGDH INHIBITORS AND METHODS OF MAKING AND USING” (EPIRIUM BIO INC., priority 2021, published 2024)
